The test system of test [1] is hMADS-2 cells differentiated into white adipocytes. The test is described as follows: Induction of a brown phenotype in hMADS-2 cells previously differentiated into white adipocytes. The test is classed as cell-based, human. Conditions: for UCP1 gene expression: replacement of rosiglitazone, 10 μM, results not shown; for expression of the UCP1 protein: exposure between days 14 and 16 with specific PPAR ligands. The procedure: Initially hMADS-2 cells were differentiated into white adipocytes with 100 nM rosiglitazone present between days 3 and 9. Once eliminated, the ligand is added or not added on day 14 and during the following days at the indicated […] concentrations.
The results are expressed as stimulation factor by taking as 1 the values obtained on day 16 after exposure to 100 nM rosiglitazone between days 3 and 9; the values represent the mean±SD of 2 independent experiments carried out with various series of cells.
(§1) Expression of the genes of interest was normalized compared with the one of the TBP gene and was quantified using the ΔCt comparative method. The sequences of oligonucleotide primers, obtained using the Primer Express Software (Perkin Elmer Life Sciences), are described in Table 1 below.
The primary antibodies obtained from the rabbit, anti-human UCP1 and anti-TBP, are products from Santa Cruz Biotechnology (Santa Cruz, Calif., USA) and the secondary antibodies (conjugated with horseradish peroxidase) are products from Promega (Charbonnières, France). The “Enhanced Chemiluminescence” system (Millipore, Saint-Quentin-Yvelines, France) was used for detection.

The subject of test [2] is human brown adipocytes immortalized by transgenesis and expressing β3-adrenergic receptors. The following applies: Zilberfarb 1997; Jockers 1998; cited from earlier work.
Test [3] concerns hMADS-2 cells. Nature of the test: Adipocytic differentiation of hMADS-2 cells (Oil Red O lipid staining, GPDH activity, PPARγ mRNA). The test is classed as cell-based, human.
Excerpt: as §1

Test [4] relates to hMADS-2 cells. The test is described as follows: Stimulation of UCP1 expression by β-adrenergic agonists in hMADS-2 cells differentiated into brown adipocytes. Format: cell-based, human. Conditions: stimulation for 6 h at 10-100 nM; cells with 100 nM rosiglitazone days 3 to 16. The procedure:
A) adipocytic differentiation of hMADS-2 cells was carried out in the presence of 100 nM rosiglitazone on the days indicated and mRNA levels were determined on day 17 by quantitative RT-PCR. (B, C) differentiation was obtained in the presence of 100 nM rosiglitazone between days 3 and 16, in the absence or the presence during the 6 last hours of β-adrenergic agonists at the indicated concentrations. The results represent the mean±SD of 3 (A) and 2 (B) independent experiments carried out with various series of cells; they are expressed by taking as 100% the values obtained either during treatment between days 3 and 9 (A) or in the absence of β-adrenergic agonists (B, C).
RNA purification and analysis: RNA extraction, the use of reverse transcriptase and determination of mRNA levels by real-time quantitative RT-PCR have been described (Zaragosi, L. E et al., Stem Cells, 2006. 24(11): p. 2412-9; Elabd, C, et al., Biochem Biophys Res Commun, 2007. 361(2): p. 342-8; Bezy, O., et al., J Biol Chem, 2005. 280(12): p. 11432-8). Expression of the genes of interest was normalized compared with the one of the TBP gene and was quantified using the ΔCt comparative method. […]
Immunoblot analysis: Total cellular lysates are analyzed by immunoblot as previously described (Bezy, O., et al., J Biol Chem, 2005. 280(12): p. 11432-8). […]

The subject of test [5] is hMADS-2 cells. Nature of the test: Oxygen consumption and respiratory uncoupling of hMADS-2 cells (respirometer). The test is classed as cell-based, human. The procedure: On day 20, oxygen consumption (A), decoupling of oxidative phosphorylation (B) and stimulation of oxygen consumption by isoprenaline (C) were measured according to the protocol described in “Materials and Methods”. […] Determination of oxygen consumption: Oxygen consumption was measured using two-chamber injection respirometer equipped with a Peltier thermostat, Clark electrodes and integrated magnetic stirrers (Oroboros, Innsbruck, Austria). Measurements were made at 37° C. with constant stirring in a volume of 2 ml of DMEM/F12 medium (1:1, v/v) containing 10% fetal calf serum. Before each measurement, the medium present in the chambers was equilibrated with air for 30 min, and then the freshly-trypsinized cells were transferred to this medium. […] The respiratory chain was blocked with 1 μg/ml antimycin A. Oxygen consumption was calculated using the DataGraph software (Oroboros Software). Basal respiratory activity corresponds to oxygen consumption sensitive to antimycin A. Respiratory activity was stimulated in the presence of 1 μM isoprenaline added extemporaneously in the injection chamber, with measurements made as described above.

Test [6] has as its system hMADS-2 cells. Nature of the test: Expression of brown adipocyte markers and related genes in hMADS-2 cells (quantitative RT-PCR, immunoblot). The following applies: brown phenotype; ratio 1 for the white phenotype (days 3 to 9). Format: cell-based, human. Here is the method:
Differentiation of hMADS-2 cells was carried out as described in FIG. 1. On day 16, levels of UCP1 (A), UCP2 (C), CIDEA (D) and CPT1B (E) mRNA were determined by quantitative RT-PCR. The results represent the mean±SD of 3 independent experiments carried out with various series of cells; they are expressed by taking as 100% the value obtained in the presence of 500 nM rosiglitazone. Levels of the UCP1 protein (B) were determined by immunoblotting on 2 different series of cells using TBP as endogenous internal standard.
Adipocytic differentiation of hMADS-2 cells was carried out in the presence of either rosiglitazone at 100 nM (A) or at the indicated concentrations (B). Levels of PRDM16, PGC-1α, PGC-1β and PPARα mRNA were determined by quantitative RT-PCR on day 16 (A) and day 17 (B). […]
Adipocytic differentiation of hMADS-2 cells was carried out in the presence of 100 nM rosiglitazone. On day 16, Bcl-2 and Bax mRNA levels were determined by quantitative RT-PCR. […]
RNA purification and analysis: RNA extraction, the use of reverse transcriptase and determination of mRNA levels by real-time quantitative RT-PCR have been described (Zaragosi, L. E et al., Stem Cells, 2006. 24(11): p. 2412-9; Elabd, C, et al., Biochem Biophys Res Commun, 2007. 361(2): p. 342-8; Bezy, O., et al., J Biol Chem, 2005. 280(12): p. 11432-8). […]
For orientation: In western blotting, separated proteins are transferred to a membrane and probed.

[7] abbreviates: 100 nM, days 3 to 20 (brown) versus days 3 to 9 (white).

`CC/C=C\C/C=C\C/C=C\C/C=C\C/C=C\CCCC(=O)O` [eicosapentaenoic acid]: the UCP1 gene expression entry in test [1] was “no effect”. Take `CCCc1c(OCCCOc2ccc(OCC(=O)O)cc2)ccc(C(C)=O)c1O` [L165041]: the “expression of the UCP1 protein” value in test [1] was “not inducing the expression of the UCP1 protein”. On to `Cc1cccc(Nc2cc(Cl)nc(SCC(=O)O)n2)c1C` [Wy14643], for which, in test [1], the “expression of the UCP1 protein” value was “not inducing the expression of the UCP1 protein”. In the case of `CC(C)(C)NCC(O)COc1cccc2[nH]c(=O)[nH]c12` (stereo not shown) [CGP12177A], in test [2], the lipolytic activity result is listed as “only weak lipolytic activity”. In the case of `O=C(Nc1ccccc1)c1cc([N+](=O)[O-])ccc1Cl` [GW 9662], the “expression of the UCP-1 gene” value in test [1] (PPARγ antagonist added, cells differentiated beforehand into white adipocytes) is listed as “does not allow expression of the UCP-1 gene”. Further, the “differentiation of hMADS cells into adipocytes” value in test [3] (PPARγ antagonist added to the differentiation medium) is listed as “prevents”. As for `CC/C=C\C/C=C\C/C=C\C/C=C\C/C=C\C/C=C\CCC(=O)O` [docosahexaenoic acid], the UCP1 gene expression result in test [1] is “no effect”. Turning to `CC(C)NCC(O)c1ccc(O)c(O)c1` (stereo not shown) [isoproterenol], the “expression of UCP1 mRNA and UCP1 protein” value in test [4] is “significantly increased”. For the same molecule, the “stimulation of oxygen consumption” value in test [5] (1 μM, cells with brown phenotype) is “important stimulation”. Turning to `CN(CCOc1ccc(CC2SC(=O)NC2=O)cc1)c1ccccn1` (stereo not shown) [rosiglitazone], the “ratio of Bcl-2 to Bax” value in test [6] is recorded as 3.7. Further, in test [5] (setting [7]), the “increase factor of total respiratory activity” value turned out to be 3 and the “increase factor of uncoupled respiratory activity” value is 2.5. With `CCCCC/C=C\C/C=C\C/C=C\C/C=C\CCCC(=O)O` [arachidonic acid], the UCP1 gene expression result in test [1] was “no effect”. As for `C[C@H](Cc1ccc2c(c1)OC(C(=O)[O-])(C(=O)[O-])O2)NC[C@H](O)c1cccc(Cl)c1.[Na+].[Na+]` [CL316243], the “expression of UCP1 mRNA and UCP1 protein” value in test [4] was “significantly increased”.

B1: BMP7: Bone Morphogentic Protein 7 (BMP7) (protein, UniProt P18075 293-431, looked up)
Bone morphogenetic protein 7: STGSKQRSQNRSKTPKNQEALRMANVAENSSSDQRQACKKHELYVSFRDLGWQDWIIAPEGYAAYYCEGECAFPLNSYMNATNHAIVQTLVHFINPETVPKPCCAPTQLNAISVLYFDDSSNVILKKYRNMVVRACGCH
Regarding B1, in test [1] (cells differentiated beforehand into white adipocytes), the UCP-1 protein expression entry is on record as “weak increase”. Also, the “differentiation of hMADS cells into adipocytes” value in test [3] (BMP7 alone, in the absence of rosiglitazone) is “does not enable their differentiation into adipocytes”.

Values taken from US9790469B2, “Established human brown adipocyte line and method for differentiation from an hMADS cell line” (CENTRE NATIONAL DE LA RECHERCHE SCIENTIFIQUE (CNRS), priority 2008, dated 2017).
